# From patent US20250129430A1, “HIGH ATP-AFFINITY PROTEIN AS THERAPEUTIC TARGET FOR INTRACTABLE CANCER MOLECULAR SUBTYPES AND INHIBITOR THEREOF” (VeraVerse Co., Ltd., priority 2021, published 2025)
# Where a name gives a salt, the structure may show the parent alone.
# Tests used:
# Test in all cases: Cell viability drug screen, 12-point dose-response AUC
# Type in all cases: cell-based, human
# [1] = system: AGS; conditions: AGS cells (non-SEM subtype); 72 hours
# Description: (§1) An FDA-approved small-molecule pharmacological compound (#L1300) and an anticancer compound for research (#L2000) were purchased from Selecckchem and a 10 mM solution was prepared in DMSO. A total of 1,345 compounds were tested the cell viability of the seven EMT gastric cancer cell lines.
# (§2) Cells cultured for cell-based drug assay were inoculated into a 96-well white optical plate (Corning) at 5×10^3 cells per well. After 24 hours after inoculation, a 2.5 MJT (primary screen) or a half-log 12-serial diluent (secondary screen) of the pharmacological compound contained in DMSO is added to the cells with a robot using a BioMek FXp liquid processor (Beckman) to add to the cells at 50 mM. The final drug concentration in the 5 ns range and the DMSO specification control (0.5%) were calculated. The cells were then further incubated at 37° C. in a 5% CO2 incubator for 72 hours prior to measuring cell viability using the extra-GLO assay kit (Promega). The luminescent properties were measured after 15 min incubation at room temperature using a plate stacker equipped with a plate stacker. The normalized viability for the DMSO-based control was measured to generate a cell line-specific 12-point dose-response curve for each pharmacological compound, and then the area under the curve (AUC) was calculated using a trapezoidal method. […] The results of the repeated experiments were averaged to generate AUC values for each cell line for each compound.
# [2] = system: Hs746T; conditions: Hs746T cells (SEM subtype); 72 hours
# Description: as §1, §2
# [3] = system: KATO3; conditions: KATO3 cells; 72 hours
# Description: as §1, §2
# [4] = system: MKN1; conditions: MKN1 cells; 72 hours
# Description: as §1, §2
# [5] = system: MKN28; conditions: MKN28 cells; 72 hours
# Description: as §1, §2
# [6] = system: MKN45; conditions: MKN45 cells (non-SEM subtype); 72 hours
# Description: as §1, §2
# [7] = system: MKN74; conditions: MKN74 cells; 72 hours
# Description: as §1, §2
# [8] = system: NCC19; conditions: NCC19 cells; 72 hours
# Description: as §1, §2
# [9] = system: NCC20; conditions: NCC20 cells; 72 hours
# Description: as §1, §2
# [10] = system: NCC24; conditions: NCC24 cells; 72 hours
# Description: as §1, §2
# [11] = system: NCC59; conditions: NCC59 cells; 72 hours
# Description: as §1, §2
# [12] = system: NCI_N87; conditions: NCI_N87 cells; 72 hours
# Description: as §1, §2
# [13] = system: OCUM1; conditions: OCUM1 cells; 72 hours
# Description: as §1, §2
# [14] = system: SK4; conditions: SK4 cells (SEM subtype); 72 hours
# Description: as §1, §2
# [15] = system: SNU16; conditions: SNU16 cells; 72 hours
# Description: as §1, §2
# [16] = system: SNU1750; conditions: SNU1750 cells (SEM subtype); 72 hours
# Description: as §1, §2
# [17] = system: SNU1967; conditions: SNU1967 cells; 72 hours
# Description: as §1, §2
# [18] = system: SNU1; conditions: SNU1 cells; 72 hours
# Description: as §1, §2
# [19] = system: SNU216; conditions: SNU216 cells (non-SEM subtype); 72 hours
# Description: as §1, §2
# [20] = system: SNU484; conditions: SNU484 cells (SEM subtype); 72 hours
# Description: as §1, §2
# [21] = system: SNU601; conditions: SNU601 cells; 72 hours
# Description: as §1, §2
# [22] = system: SNU620; conditions: SNU620 cells; 72 hours
# Description: as §1, §2
# [23] = system: SNU638; conditions: SNU638 cells; 72 hours
# Description: as §1, §2
# [24] = system: SNU668; conditions: SNU668 cells (SEM subtype); 72 hours
# Description: as §1, §2
# [25] = system: SNU719; conditions: SNU719 cells; 72 hours
# Description: as §1, §2
# [26] = system: YCC11; conditions: YCC11 cells (SEM subtype); 72 hours
# Description: as §1, §2
# [27] = system: YCC2; conditions: YCC2 cells; 72 hours
# Description: as §1, §2
# [28] = system: YCC3; conditions: YCC3 cells; 72 hours
# Description: as §1, §2
# [29] = system: FU97; parameters: Average Area Under the Viability Curve (AUC), AUC norm value: scale not given here; conditions: FU97 cells; 72 hours
# Description: Cells cultured for cell-based drug assay were inoculated into a 96-well white optical plate (Corning) at 5×10^3 cells per well. After 24 hours after inoculation, a 2.5 MJT (primary screen) or a half-log 12-serial diluent (secondary screen) of the pharmacological compound contained in DMSO is added to the cells with a robot using a BioMek FXp liquid processor (Beckman) to add to the cells at 50 mM. The final drug concentration in the 5 ns range and the DMSO specification control (0.5%) were calculated. The cells were then further incubated at 37° C. in a 5% CO2 incubator for 72 hours prior to measuring cell viability using the extra-GLO assay kit (Promega). The luminescent properties were measured after 15 min incubation at room temperature using a plate stacker equipped with a plate stacker. The normalized viability for the DMSO-based control was measured to generate a cell line-specific 12-point dose-response curve for each pharmacological compound, and then the area under the curve (AUC) was calculated using a trapezoidal method.
Compound,"Average Area Under the Viability Curve (AUC), AUC norm value [1]","Average Area Under the Viability Curve (AUC), AUC norm value [2]","Average Area Under the Viability Curve (AUC), AUC norm value [3]","Average Area Under the Viability Curve (AUC), AUC norm value [4]","Average Area Under the Viability Curve (AUC), AUC norm value [5]","Average Area Under the Viability Curve (AUC), AUC norm value [6]","Average Area Under the Viability Curve (AUC), AUC norm value [7]","Average Area Under the Viability Curve (AUC), AUC norm value [8]","Average Area Under the Viability Curve (AUC), AUC norm value [9]","Average Area Under the Viability Curve (AUC), AUC norm value [10]","Average Area Under the Viability Curve (AUC), AUC norm value [11]","Average Area Under the Viability Curve (AUC), AUC norm value [12]","Average Area Under the Viability Curve (AUC), AUC norm value [13]","Average Area Under the Viability Curve (AUC), AUC norm value [14]","Average Area Under the Viability Curve (AUC), AUC norm value [15]","Average Area Under the Viability Curve (AUC), AUC norm value [16]","Average Area Under the Viability Curve (AUC), AUC norm value [17]","Average Area Under the Viability Curve (AUC), AUC norm value [18]","Average Area Under the Viability Curve (AUC), AUC norm value [19]","Average Area Under the Viability Curve (AUC), AUC norm value [20]",further results
CCCCC(CC)CNC(=N)NC(=N)NCCCCCCNC(=N)NC(=N)NCC(CC)CCCC (stereo not shown) [Alexidine HCl],−0.444,−0.2597,0.541,0.8687,0,0.04553,−0.3433,1.132,0.6963,−0.4745,1.334,2.531,−0.04134,−0.9023,−1.849,−0.6331,0.1828,0.7061,0.03777,−1.212,"Average Area Under the Viability Curve (AUC), AUC norm value [21]: 1.898; Average Area Under the Viability Curve (AUC), AUC norm value [22]: 0.0423; Average Area Under the Viability Curve (AUC), AUC norm value [23]: −0.612; Average Area Under the Viability Curve (AUC), AUC norm value [24]: −0.1375; Average Area Under the Viability Curve (AUC), AUC norm value [25]: 1.2; Average Area Under the Viability Curve (AUC), AUC norm value [26]: −1.347; Average Area Under the Viability Curve (AUC), AUC norm value [27]: −0.00823; Average Area Under the Viability Curve (AUC), AUC norm value [28]: 0.8273; Average Area Under the Viability Curve (AUC), AUC norm value [29]: −0.9535"
"Cc1ccc(S(=O)(=O)/C=C/C#N)cc1 [BAY 11-7082 (BAY 11-7821), BAY 11-7082]",−0.5085,−0.5796,0.7229,−0.3248,−0.1987,0.194,0.03633,−0.07527,−0.8287,0.8357,1.031,0.5073,0.7491,−0.7659,−0.6715,−1.012,−0.8028,1.33,0.3865,−0.4504,"Average Area Under the Viability Curve (AUC), AUC norm value [21]: 0.7218; Average Area Under the Viability Curve (AUC), AUC norm value [22]: −0.1923; Average Area Under the Viability Curve (AUC), AUC norm value [23]: −1.497; Average Area Under the Viability Curve (AUC), AUC norm value [24]: 0.8081; Average Area Under the Viability Curve (AUC), AUC norm value [25]: 1.377; Average Area Under the Viability Curve (AUC), AUC norm value [26]: −1.538; Average Area Under the Viability Curve (AUC), AUC norm value [27]: 0; Average Area Under the Viability Curve (AUC), AUC norm value [28]: 0.7116; Average Area Under the Viability Curve (AUC), AUC norm value [29]: 0.0931"
